Results from US20250268827A1, “COMBINED MEDICINAL DRUG INCLUDING LIPOSOME COMPOSITION ENCOMPASSING TOPOTECAN OR SALT THEREOF AND DNA DAMAGE REPAIR INHIBITOR” (FUJIFILM Corporation, priority 2022, published 2025).
Where two headings read alike, the source gives them in different places.

Key:
[1] = tested on: Capan-1 (pancreatic cancer cell line); experiment: In vitro cell proliferation inhibition test with isobologram analysis (Test Example 3), Capan-1; assay type: cell-based, human; conditions: for effect of combined use with Lipo in isobologram analysis / DNA damage repair inhibitor (Ceralasertib) FIC: Capan-1; for effect of combined use with Lipo in isobologram analysis: DNA damage repair inhibitor combined with Lipo, 6 days culture; for IC50: Homo sapiens, CAPAN-1, Capan-1, read-out: IC50 value (nmol/L) of DNA damage repair inhibitor (Ceralasertib) at each of concentration points of Lipo
Procedure: (§1) A Cell Counting Kit-8 (Dojindo Molecular Technologies. Inc.) was used for a living cell detection method, and the absorbance at 460 nm after 4 hours of reagent addition was measured with a microplate reader to obtain the IC50 value. [table] As various DNA damage repair inhibitors to be used in combination with the liposome composition, the following DNA damage repair inhibitors were used; ceralasertib ([…] Biotechnology, Inc.) as an ATR inhibitor, prexasertib ([…] Biotechnology, Inc.) as a CHK1/2 inhibitor, […] Biotechnology, Inc.) as a DNA-PK inhibitor, […] Biotechnology, Inc.) as an ATM inhibitor, ZN-c3 ([…] Biotechnology, Inc.) as a WEE1 inhibitor, and olaparib ([…] Biotechnology, Inc.) as a PARP inhibitor. […] [table] […] First, the IC50 value of Lipo alone and the IC50 value of various DNA damage repair inhibitors alone were determined. Next, various DNA damage repair inhibitors were used in combination at each of the set concentration points of Lipo, and the IC50 value of the DNA damage repair inhibitors was determined. A value obtained by […] was denoted as “Lipo FIC”, and a value obtained by dividing this value by the IC50 value of the various DNA damage repair inhibitors was denoted as “various DNA damage repair inhibitor FIC”, and then these two values were recorded as one set of values. […] In addition, Lipo was used in combination at each of the concentration points of the various DNA damage repair inhibitors which were set in the same manner, and the IC50 value of the Lipo was determined. A value obtained by dividing this value by the IC50 value of Lipo alone was denoted as “Lipo FIC”, and a value obtained by dividing this value by the IC50 value of the various DNA damage repair inhibitors was denoted as “various DNA damage repair inhibitor FIC”, and then these two values were recorded as one set of values. […] As shown in Table 8 and Table 9, an isobologram was obtained by plotting each set of these values on the graph of various DNA damage repair inhibitors FIC v.s. Lipo FIC. […] A case of being plotted to the right indicates an “antagonistic effect”, which is regarded as an inappropriate effect of combined use. FIG. 5 to FIG. 21 show the results.

[2] = tested on: DMS114 (lung cancer cell line); experiment: In vitro cell proliferation inhibition test with isobologram analysis (Test Example 3), DMS 114; assay type: cell-based; conditions: DNA damage repair inhibitor combined with Lipo, 5 days culture
Procedure: as §1

[3] = tested on: ES-2 (ovarian cancer cell line); experiment: In vitro cell proliferation inhibition test with isobologram analysis (Test Example 3), ES-2; assay type: cell-based; conditions: DNA damage repair inhibitor combined with Lipo, 3 days culture
Procedure: as §1

[4] = tested on: Capan-1 cells (human pancreatic cancer cell line) subcutaneous tumor; experiment: Drug efficacy in pancreatic cancer cell line (Capan-1) model, combined use of Lipo and olaparib (Test Example 1); assay type: in vivo, mouse Balb/cAJcl-nu/nu; conditions: same dosing as Table 1; relative to no-drug group; day 28

With C[C@@H]1COCCN1c1cc(C2([S@](C)(=N)=O)CC2)nc(-c2cc[nH]c3nccc2-3)n1 [Ceralasertib] the “effect of combined use with Lipo in isobologram analysis” value (“effect … in isobologram analysis” for short) [1] was “synergistic effect”, the “DNA damage repair inhibitor (Ceralasertib) FIC” value (shortened to “DNA damage repair inhibitor”) ([1]; Table 8, Lipo 0.0 nmol/L) was 1.0 and the “DNA damage repair inhibitor” value ([1]; Table 8, Lipo 0.14 nmol/L) was 0.7. For the same compound, the “DNA damage repair inhibitor” value ([1]; Table 8, Lipo 0.41 nmol/L) was 0.9, the “DNA damage repair inhibitor” value ([1]; Table 8, Lipo 1.23 nmol/L) was 0.9 and the “DNA damage repair inhibitor” value ([1]; Table 8, Lipo 3.7 nmol/L) was 0.2. For the same compound, the “DNA damage repair inhibitor” value ([1]; Table 8, Lipo 11.1 nmol/L) was 0.02, the “DNA damage repair inhibitor” value ([1]; Table 9, ceralasertib 0.0 nmol/L) was 0.0 and the “DNA damage repair inhibitor” value ([1]; Table 9, ceralasertib 4.57 nmol/L with Lipo) was 0.01. The “DNA damage repair inhibitor” value ([1]; Table 9, ceralasertib 13.7 nmol/L with Lipo) was 0.02, the “DNA damage repair inhibitor” value ([1]; Table 9, ceralasertib 41.2 nmol/L with Lipo) was 0.05 and the “DNA damage repair inhibitor” value ([1]; Table 9, ceralasertib 123 nmol/L with Lipo) was 0.1. The “DNA damage repair inhibitor” value ([1]; Table 9, ceralasertib 370 nmol/L with Lipo) was 0.4, the IC50 ([1]; Lipo 0.0 nmol/L (ceralasertib alone)) was 893 nmol/L and the IC50 ([1]; combined with Lipo 0.14 nmol/L) was 634 nmol/L. It also gave an IC50 ([1]; combined with Lipo 0.41 nmol/L) of 809 nmol/L, an IC50 ([1]; combined with Lipo 1.23 nmol/L) of 798 nmol/L and an IC50 ([1]; combined with Lipo 3.7 nmol/L) of 181 nmol/L. For the same compound, the IC50 ([1]; combined with Lipo 11.1 nmol/L) was 14.9 nmol/L, the “effect … in isobologram analysis” value [2] was “synergistic effect” and the “effect … in isobologram analysis” value [3] was “synergistic effect”.
For COc1ccc([C@@H](O)c2cc(-c3ncnc4cc(N5CCOCC5)ccc34)c(F)cc2Cl)nn1 [Example M3814], the “effect … in isobologram analysis” value [1] was “synergistic effect”, the “effect … in isobologram analysis” value [2] was “synergistic effect” and the “effect … in isobologram analysis” value [3] was “additive effect”.
In the case of COc1cc2ncc3c(c2cc1-c1cn(C)nc1C)n(-c1c(F)cncc1OC)c(=O)n3C [Example M4076], the “effect … in isobologram analysis” value [1] is reported as “additive effect”, the “effect … in isobologram analysis” value [2] is reported as “synergistic effect” and the “effect … in isobologram analysis” value [3] is reported as “synergistic effect”.
With O=C(c1cc(Cc2n[nH]c(=O)c3ccccc23)ccc1F)N1CCN(C(=O)C2CC2)CC1 [Olaparib] the “effect … in isobologram analysis” value [1] was “synergistic effect”, the “Drug efficacy (tumor diameter) 28 days after administration, proportion to Comparative Example 1” value [4] was “(80%)” and the “effect … in isobologram analysis” value [2] was “synergistic effect”. The “Safety (body weight: g) 28 days after administration” value (Capan-1 tumor-bearing female nude mice, Lipo 0.5 mg/kg or topotecan 5 mg/kg i.v. weekly x 4, olaparib 50 mg/kg i.p. daily x 6 days/week x 4 weeks, day 28) was 103 g, the “Safety (body weight) 28 days after administration, proportion to Comparative Example 1” value (same dosing as Table 1, relative to no-drug group, day 28) was “(97%)” and the “effect … in isobologram analysis” value [3] was “synergistic effect”.
With CC[C@@]1(O)C(=O)OCc2c1cc1n(c2=O)Cc2cc3c(CN(C)C)c(O)ccc3nc2-1 [Topotecan] the “Drug efficacy (tumor diameter) 28 days after administration, proportion to Comparative Example 1” value [4] was “(80%)” and the “Safety (body weight) 28 days after administration, proportion to Comparative Example 1” value (mouse, in vivo) was “(96%)”.
For C=CCn1c(=O)c2cnc(Nc3ccc(N4CCN(C)CC4)cc3)nc2n1-c1ccc2c(n1)[C@@](O)(CC)CC2 [ZN-c3], the “effect … in isobologram analysis” value [1] was “additive effect”, the “effect … in isobologram analysis” value [2] was “additive effect” and the “effect … in isobologram analysis” value [3] was “synergistic effect”.
In the case of COc1cccc(OCCCN)c1-c1cc(Nc2cnc(C#N)cn2)n[nH]1 [prexasertib], the “effect … in isobologram analysis” value [2] is reported as “synergistic effect” and the “effect … in isobologram analysis” value [3] is reported as “synergistic effect”.
